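A five-concentration, 48-hour dose response in 96-well plates underlies each endpoint, interpolated linearly between surrounding concentrations. Abbreviation: GI50, concentration required for 50% inhibition of growth.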 Active and inactive are the calls of the source. No stated cut-off is given here; in the data, active = GI50 up to about 1.1 µM and inactive = higher.
Legend:
Assay in all cases: DTP human tumour cell line panel, 48 h
[1] = test system: SK-MEL-2
[2] = test system: SF-539
[3] = test system: EKVX
[4] = test system: ACHN
[5] = test system: SF-268
[6] = test system: OVCAR-8
[7] = test system: NCI-H460
[8] = test system: KM12
[9] = test system: HCT-15
[10] = test system: UACC-257
[11] = test system: MDA-MB-231
[12] = test system: MDA-MB-435
[13] = test system: A549
[14] = test system: LOX IMVI
[15] = test system: HT-29
[16] = test system: Malme-3M
[17] = test system: OVCAR-4
[18] = test system: RXF 393
[19] = test system: SW-620
[20] = test system: HOP-92

Row | Structure (SMILES) | GI50 [1] | GI50 [2] | GI50 [3] | GI50 [4] | GI50 [5] | GI50 [6] | GI50 [7] | GI50 [8] | GI50 [9] | GI50 [10] | GI50 [11] | GI50 [12] | GI50 [13] | GI50 [14] | GI50 [15] | GI50 [16] | GI50 [17] | GI50 [18] | GI50 [19] | GI50 [20]
1 | CS/C(C#N)=C(\C#N)SC | 12.4 µM (inactive) | 9.64 µM (inactive) | 19 µM (inactive) | 4.33 µM (inactive) | 11.9 µM (inactive) | 2.74 µM (inactive) | 21.4 µM (inactive) | 13.9 µM (inactive) | 2.23 µM | 10.9 µM (inactive) | 24.7 µM (inactive) | 14 µM (inactive) | 30.4 µM (inactive) | 2.5 µM (inactive) | 16.1 µM (inactive) | 11.4 µM (inactive) | 13.4 µM (inactive) | 1.82 µM (inactive) | 4.47 µM (inactive) | –
2 | CC1(C)C(CC(=O)O)CCCC1CC(=O)O (stereo unspecified) | > 100 µM (inactive) | – | > 100 µM (inactive) | > 100 µM (inactive) | – | > 100 µM (inactive) | – | > 100 µM (inactive) | > 100 µM | > 100 µM (inactive) | > 100 µM (inactive) | > 100 µM (inactive) | > 100 µM (inactive) | > 100 µM (inactive) | > 100 µM (inactive) | – | > 100 µM (inactive) | > 100 µM (inactive) | > 100 µM (inactive) | –
3 | CC1=CC(=O)C(C(O)(C(F)(F)F)C(F)(F)F)C(C)(C)C1 (stereo unspecified) | > 10 µM (inactive) | > 10 µM (inactive) | > 10 µM (inactive) | > 10 µM (inactive) | > 10 µM (inactive) | > 10 µM (inactive) | > 10 µM (inactive) | > 10 µM (inactive) | > 10 µM | > 10 µM (inactive) | > 10 µM (inactive) | > 10 µM (inactive) | > 10 µM (inactive) | > 10 µM (inactive) | > 10 µM (inactive) | > 10 µM (inactive) | > 10 µM (inactive) | > 10 µM (inactive) | > 10 µM (inactive) | –
4 | COc1ccc(/C=C2\OC(=O)C(Cl)=C2c2ccc(OC)c(Cl)c2)cc1 | 49.8 µM (inactive) | 15.2 µM (inactive) | 18.3 µM (inactive) | 30.4 µM (inactive) | 17.3 µM (inactive) | 21.1 µM (inactive) | 22.6 µM (inactive) | 28.7 µM (inactive) | 45 µM | 34.7 µM (inactive) | – | 23.8 µM (inactive) | 24.4 µM (inactive) | 32.1 µM (inactive) | 43.2 µM (inactive) | 25.3 µM (inactive) | 20.3 µM (inactive) | 12 µM (inactive) | 36.6 µM (inactive) | 17.9 µM (inactive)
5 | O=S(=O)(Cc1ccccc1)c1nnc(S(=O)(=O)c2ccc(Cl)cc2)s1 | 22.8 µM (inactive) | 18.5 µM (inactive) | 25.6 µM (inactive) | 19.4 µM (inactive) | 19.5 µM (inactive) | 19 µM (inactive) | 21.2 µM (inactive) | 25.7 µM (inactive) | 20.9 µM | 19.9 µM (inactive) | 34.8 µM (inactive) | 27.1 µM (inactive) | 27.5 µM (inactive) | – | 22.5 µM (inactive) | – | 24.4 µM (inactive) | 17.3 µM (inactive) | 23.9 µM (inactive) | –
6 | Cc1cn(C2CC(OP(=O)(O)OCC3OC(n4c[n+]([BH2-]C#N)c5c(=O)[nH]c(N)nc54)CC3O)C(CO)O2)c(=O)[nH]c1=O (stereo unspecified) | > 100 µM (inactive) | > 100 µM (inactive) | > 100 µM (inactive) | > 100 µM (inactive) | > 100 µM (inactive) | > 100 µM (inactive) | > 100 µM (inactive) | > 100 µM (inactive) | > 100 µM | > 100 µM (inactive) | > 100 µM (inactive) | – | > 100 µM (inactive) | – | > 100 µM (inactive) | > 100 µM (inactive) | > 100 µM (inactive) | > 100 µM (inactive) | – | > 100 µM (inactive)
